Test results as given in patent publication US20090117074A1, “Sulfonylpyrroles as Histone Deacetylase Inhibitors” (NYCOMED GmbH, priority 2005, published 2009).
Where a name gives a salt, the structure may show the parent alone.

Legend:
[1] = system: HeLa cervical carcinoma cell line; test: Cellular cytotoxicity assay (Alamar Blue), HeLa; format: cell-based; conditions: Homo sapiens, 48 or 72 hours, read-out: IC50, anti-proliferative/cytotoxic activity
Procedure: (§1) The anti-proliferative activity of the histone deacetylase inhibitory compounds as described herein, Is evaluated with the HeLa cervical carcinoma cell line (ATCC CCL2) and A549 non-small cell lung cancer cell line (ATCC CCL185) using the Alamar Blue (Resazurin) cell viability assay (O'Brien et al. Eur J Biochem 267, 5421-5426, 2000). Resazurin is reduced to the fluorescent resorufin by cellular dehydrogenase activity, correlating with viable, proliferating cells. Test compounds are dissolved as 20 mM solutions in dimethylsulfoxide (DMSO) and subsequently diluted in semi-logarithmic steps. HeLa or A549 cells are seeded into 96 well flat bottom plates at a density of 1000 and 2000 cells per well, respectively, in a volume of 200 μl per well. 24 hours after seeding 1 μl each of the compound dilutions are added into each well of the 96 Well plate. Each compound dilution is tested as quadruplicates.
(§2) Wells containing untreated control cells are filled with 200 μl DMEM medium containing 0.5% v:v DMSO. The cells are then incubated with the substances for 48 or 72 hours at 37° C. in a humidified atmosphere containing 5% carbon dioxide. To determine the viability of the cells, 20 μl of an Resazurin solution (Sigma; 90 mg/I) were added. After 4 hours incubation at 37° C. the fluorescence is measured at an extinction of 544 nm and an emission of 590 nm. For the calculation of the cell viability the emission value from untreated cells is set as 100% viability and the emission rates of treated cells are set in relation to the values of untreated cells. Viabilities are expressed as % values. The corresponding IC50 values of the compounds for cytotoxic activity are determined from the concentration-effect curves by means of non-linear regression.

[2] = system: A549 NSCLC cell line; test: Cellular cytotoxicity assay (Alamar Blue), A549; format: cell-based; conditions: Homo sapiens, 48 or 72 hours, read-out: IC50, anti-proliferative/cytotoxic activity
Procedure: as §1, §2

[3] = system: A549 cells; test: Apoptosis induction (cell death detection ELISA); format: cell-based, human; conditions: 10 μM, 48 hours
Procedure: The induction of apoptosis is measured by using the cell death detection ELISA (Art. No. 1774425, Roche Biochemicals, Mannheim, Germany). A549 NSCLC cells are seeded into 96 well flat bottom plates at a density of 3×10 E3 cells/well in a total volume of 200 μl/well. 24 hours after seeding, 1 μl each of the compound dilutions in DMEM are added in a total volume of 200 μl into each well (final volume 200 μl/well). Each compound dilution is tested at least as triplicates. Wells containing untreated control cells are filled with 200 μl DMEM containing 0.5 vol % DMSO. The cells are incubated with test compound for 48 hours at 37° C. in a humidified atmosphere containing 5% carbon dioxide. As a positive control for the induction of apoptosis, cells are treated with 50 μM Cisplatin (Gry Pharmaceuticals, Kirchzarten, Germany). Medium is then removed and the cells lysed in 200 μl lysis buffer. After centrifugation as described by the manufacturer, 10 μl of cell lysate is processed as described in the protocol. The degree of apoptosis is calculated as follows: The absorbance at 405 nm obtained with lysates from cells treated with 50 μM cisplatin is set as 100 cpu (cisplatin units), while an absorbance at 405 nm of 0.0 is set as 0.0 cpu. The degree of apoptosis is expressed as cpu in relation to the value of 100 cpu reached with the lysates obtained from cells treated with 50 μM cisplatin.

[4] = system: histone H3 hyperacetylation in HeLa cells; test: Cellular histone H3 hyperacetylation assay; format: cell-based; conditions: Homo sapiens, 24 h incubation
From the text: To assess the cellular efficacy of a histone deacetylase inhibitor in vitro, an assay is set up in black clear-bottom 96-well plates and optimized for use on the Cellomics “ArrayScan II” platform for a quantitative calculation of histone acetylation. The protocol uses a polyclonal rabbit antibody, specifically binding to acetylated lysine 23 or, alternatively, acetylated lysine 9+14 of human histone H3 on fixed cells with an Alexa Fluor 488 labeled goat anti rabbit-IgG used for counterstaining (modified from Braunger et al. AACR annual conference 2003, Abstract 4556).
5×10^3 HeLa cervical carcinoma cells/well (ATCC CCL-2) in 200 μl Dulbecco's modified Eagle's medium (DMEM) containing 10% fetal calf serum are seeded at day 1 in Packard view plates and incubated for 24 h under standard cell culture conditions. On day 2, 1 μl test compound (200× final concentration) is added and incubation continued for further 24 h. On day 3, the culture medium is discarded and attached cells fixed for 15 min at room temperature by addition of 100 μl fixation buffer (3.7% v:v formaldehyde in phosphate buffered saline/PBS). After discarding the fixation buffer and one wash with blocking solution (1% BSA, 0.3% Tween 20 in PBS), cells are permeabilized at room temperature by addition of 100 μl/well permeabilization buffer (30.8 mM NaCl, 0.54 mM Na2HPO4, 0.31 mM KH2PO4, 0.1% v:v Triton X-100) for 15 min at room temperature. After discarding the permeabilization buffer and washing twice with 100 μl/well blocking solution at room temperature, the 1st antibody (anti-K23 histone H3 antibody, Cell Signaling No. 9674 or, alternatively, anti-K9+14 histone H3 antibody, Calbiochem No. 382158) in blocking solution (50 μl/well) is added. After incubation for 1 h at room temperature, the wells are washed twice at room temperature with 100 μl/well blocking solution before addition of the 2nd antibody (goat-anti-rabbit Alexa Fluor 488; MoBiTec No. A-11008) in blocking solution (50 μl/well). After further incubation for 1 h at room temperature, wells are washed twice with 100 μl/well blocking solution at room temperature. Finally, 100 μl/well PBS are added and image analysis performed on the Cellomics “ArrayScan II” platform. For EC50 determination, the percentage of positive cells showing nuclear fluorescence is determined and EC50 calculation done from concentration-effect curves by means of non-linear regression. For calibration, a positive (reference HDAC inhibitors like SAHA or LBH589) and negative control is included.

| melting point [°C] | EC50 [4] [nM] | Compound | IC50 [1] [nM] | IC50 [2] [nM] | Apoptosis induction (cisplatin units; 50 μM cisplatin = 100 cpu) [3] [cpu] |
| --- | --- | --- | --- | --- | --- |
| 190 to 194 |  | Cc1nc(S(=O)(=O)n2ccc(/C=C/C(=O)NO)c2)cn1C [Example 12, (E)-3-[1-(1,2-Dimethyl-1H-imidazole-4-sulfonyl)-1H-pyrrol-3-yl]-N-hydroxy-acrylamide] |  |  |  |
| 161.4 to 176.4 |  | O=C(/C=C/c1ccn(S(=O)(=O)c2cccnc2)c1)NO [Example 3, (E)-N-Hydroxy-3-[1-(pyridine-3-sulfonyl)-1H-pyrrol-3-yl]-acrylamide] | 230 to 4200 | 313 to 6200 |  |
| 181 to 182 |  | Cc1nc(C)c(S(=O)(=O)n2ccc(C=CC(=O)NO)c2)s1 (as salt: HCl) [Example 11, (E)-3-[1-(2, Dimethyl-thiazole-5-sulfonyl)-1H-pyrrol-3-yl]-N-hydroxy-acrylamide] |  |  |  |
|  | 190 to 10000 | Nc1ccccc1NC(=O)/C=C/c1ccn(S(=O)(=O)c2ccc3ccccc3c2)c1 [Example 2, (E)-N-(2-Amino-phenyl)-3-[1-(naphthalene-2-sulfonyl)-1H-pyrrol-3-yl]-acrylamide] | 230 to 4200 | 313 to 6200 | 46 |
|  | 190 to 10000 | O=C(/C=C/c1ccn(S(=O)(=O)c2ccc3ncsc3c2)c1)NO [Example 10, (E)-3-[1-(Benzothiazole-6-sulfonyl)-1H-pyrrol-3-yl]-N-hydroxy-acrylamide] | 230 to 4200 | 313 to 6200 |  |
|  | 190 to 10000 | O=C(/C=C/c1ccn(S(=O)(=O)c2ccc(N3CCOCC3)nc2)c1)NO [Example 4, (E)-N-Hydroxy-3-[1-(6-morpholin-4-yl-pyridine-3-sulfonyl)-1H-pyrrol-3-yl]-acrylamide] | 230 to 4200 | 313 to 6200 |  |
|  |  | Cc1nc(C)c(S(=O)(=O)n2ccc(C=CC(=O)NO)c2)s1 [Example 11, (E)-3-[1-(2, Dimethyl-thiazole-5-sulfonyl)-1H-pyrrol-3-yl]-N-hydroxy-acrylamide] | 230 to 4200 | 313 to 6200 |  |
|  |  | Cn1cc(S(=O)(=O)n2ccc(/C=C/C(=O)NO)c2)cn1 [Example 8, (E)-N-Hydroxy-3-[1-(1-methyl-1H-pyrazole-4-sulfonyl)-1H-pyrrol-3-yl]-acrylamide] | 230 to 4200 | 313 to 6200 |  |
|  | 190 to 10000 | O=C(/C=C/c1ccn(S(=O)(=O)c2cc3ccccc3s2)c1)NO [Example 9, (E)-3-[1-(Benzo[b]thiophene-2-sulfonyl)-1H-pyrrol-3-yl]-N-hydroxy-acrylamide] | 230 to 4200 | 313 to 6200 |  |
|  | 190 to 10000 | O=C(/C=C/c1ccn(S(=O)(=O)c2ccc3ccccc3c2)c1)NO [Example 1, (E)-N-Hydroxy-3-[1-(naphthalene-2-sulfonyl)-1H-pyrrol-3-yl]-acrylamide] | 230 to 4200 | 313 to 6200 | 310 |
